# Experimental data reported in patent US9718828B2 (MERCK SHARP & DOHME CORP., priority 2011, dated 2017).
# Counter-ions that a name gives are not always drawn.
# Target: Btk enzyme (His-Btk) (Homo sapiens (Human), UniProt Q06187)
# Test: Btk enzyme activity, IMAP fluorescence polarization assay (Assay Method A)
# Conditions: not given
# Chain of Btk enzyme (His-Btk) (Q06187 whole entry): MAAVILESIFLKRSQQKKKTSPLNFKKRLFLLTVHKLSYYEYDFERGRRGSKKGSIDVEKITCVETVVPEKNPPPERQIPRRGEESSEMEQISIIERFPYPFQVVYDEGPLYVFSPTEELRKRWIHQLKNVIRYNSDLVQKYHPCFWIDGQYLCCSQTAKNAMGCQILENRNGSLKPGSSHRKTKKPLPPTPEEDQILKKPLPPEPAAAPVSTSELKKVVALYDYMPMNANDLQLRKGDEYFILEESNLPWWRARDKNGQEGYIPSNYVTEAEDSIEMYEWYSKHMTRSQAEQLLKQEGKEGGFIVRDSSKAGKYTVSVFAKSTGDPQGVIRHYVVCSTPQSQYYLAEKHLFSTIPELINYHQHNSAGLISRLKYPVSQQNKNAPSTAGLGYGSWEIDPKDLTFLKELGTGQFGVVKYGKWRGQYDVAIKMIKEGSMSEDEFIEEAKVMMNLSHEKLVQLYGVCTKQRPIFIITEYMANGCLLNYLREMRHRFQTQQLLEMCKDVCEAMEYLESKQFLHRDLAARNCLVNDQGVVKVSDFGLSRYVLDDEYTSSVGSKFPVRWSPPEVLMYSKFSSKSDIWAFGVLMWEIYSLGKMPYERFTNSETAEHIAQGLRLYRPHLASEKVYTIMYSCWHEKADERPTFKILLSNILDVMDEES
row,Structure (SMILES),EC50 [nM]
1,"Nc1nccn2c([C@@H]3CCC[C@H](N)C3)nc(-c3ccc(C(=O)Nc4cc(C(F)(F)F)ccn4)cc3)c12 (relative stereo) [Example 157, 4-(8-amino-3-((cis)-3-aminocyclohexyl)imidazo[1,5-a]pyrazin-1-yl)-N-(4-(trifluoromethyl)pyridin-2-yl)benzamide]",10 to 100
2,"Cc1nc(-c2ccc(C(=O)Nc3cc(C(F)(F)F)ccn3)cc2)c2c(N)ncc(C(=O)NCc3ccccc3)n12 [Example 292, 8-amino-N-benzyl-3-methyl-1-(4-(4-(trifluoromethyl)pyridin-2-ylcarbamoyl)phenyl)imidazo[1,5-a]pyrazine-5-carboxamide]",100 to 1000

# The next lines start with the values.
row,EC50 [nM],Structure (SMILES)
1,10 to 100,"COCCC(=O)N1CCC[C@@H](c2nc(-c3ccc(C(=O)Nc4ccccn4)c(C)c3)c3c(N)nccn23)C1 [Example 286, (R)-4-(8-amino-3-(1-(3-methoxypropanoyl)piperidin-3-yl)imidazo[1,5-a]pyrazin-1-yl)-2-methyl-N-(pyridin-2-yl)benzamide, TFA salt]"
2,10 to 100,"Nc1nccn2c1c(-c1ccc(C(=O)Nc3ccccn3)cc1)nc2[C@H]1CC[C@H](O)CC1 [Example 1, 4-(8-amino-3-((trans)-4-hydroxycyclohexyl)imidazo[1,5-a]pyrazin-1-yl)-N-(pyridin-2-yl)benzamide]"
3,10 to 100,"CC1(C(=O)N2CCC[C@@H](c3nc(-c4ccc(C(=O)Nc5cnccn5)cc4)c4c(N)nccn34)C2)COC1 [Example 290, (R)-4-(8-amino-3-(1-(3-methyloxetane-3-carbonyl)piperidin-3-yl)imidazo[1,5-a]pyrazin-1-yl)-N-(pyrazin-2-yl)benzamide]"
4,< 10,"Nc1nccn2c([C@@H]3CCCN(C(=O)C4CN(C(=O)c5ccccc5)C4)C3)nc(-c3ccc(C(=O)Nc4cc(C(F)(F)F)ccn4)cc3)c12 [Example 84, (R)-4-(8-amino-3-(1-(1-benzoylazetidine-3-carbonyl)piperidin-3-yl)imidazo[1,5-a]pyrazin-1-yl)-N-(4-(trifluoromethyl)pyridin-2-yl)benzamide]"
5,10 to 100,"Cc1ccc(NC(=O)C(=O)N2CCC[C@@H](c3nc(-c4ccc(C(=O)Nc5cc(C6CC6)ccn5)cc4)c4c(N)nccn34)C2)cc1C [Example 113, (R)-4-(8-amino-3-(1-(2-(3,4-dimethylphenylamino)-2-oxoacetyl)piperidin-3 yl)imidazo[1,5-a]pyrazin-1-yl)-N-(4-cyclopropylpyridin-2-yl)benzamide]"
6,100 to 1000,"COC1CN(c2nc(-c3ccc(C(=O)Nc4ccccn4)cc3)c3c(N)nccn23)C1 [Example 217, 4-(8-amino-3-(3-methoxyazetidin-1-yl)imidazo[1,5-a]pyrazin-1-yl)-N-(pyridin-2-yl)benzamide]"
7,100 to 1000,"Nc1nccn2c([C@@H]3CCCN(Cc4ccccc4)C3)nc(-c3ccc(C(=O)Nc4ccccn4)cc3)c12 [Example 133, (R)-4-(8-amino-3-(1-benzylpiperidin-3-yl)imidazo[1,5-a]pyrazin-1-yl)-N-(pyridin-2-yl)benzamide]"
8,100 to 1000,"CC(C)C(=O)N1CCC(c2nc(-c3ccc(C(=O)Nc4ccccn4)cc3)c3c(N)nccn23)CC1 [Example 129, 4-(8-amino-3-(1-isobutyrylpiperidin-4-yl)imidazo[1,5-a]pyrazin-1-yl)-N-(pyridin-2-yl)benzamide]"
9,100 to 1000,"CC(C)C(=O)N1CC[C@@H](c2nc(-c3ccc(C(=O)Nc4ccccn4)cc3)c3c(N)nccn23)C1 [Example 127, (R)-4-(8-amino-3-(1-isobutyrylpyrrolidin-3-yl)imidazo[1,5-a]pyrazin-1-yl)-N-(pyridin-2-yl)benzamide, TFA salt]"
10,100 to 1000,"COCCC(=O)N1CCC2(CC1)CC2c1nc(-c2ccc(C(=O)Nc3ccccn3)cc2)c2c(N)nccn12 (centres unmarked) [Example 151, 4-(8-amino-3-(6-(3-methoxypropanoyl)-6-azaspiro[2.5]octan-1-yl)imidazo[1,5-a]pyrazin-1-yl)-N-(pyridin-2-yl)benzamide]"
11,10 to 100,"CCC(F)(F)C(=O)N1CCC[C@@H](c2nc(-c3ccc(C(=O)Nc4ccccn4)cc3)c3c(N)nccn23)C1 [Example 93, (R)-4-(8-amino-3-(1-(2,2-difluorobutanoyl)piperidin-3-yl)imidazo[1,5-a]pyrazin-1-yl)-N-(pyridin-2-yl)benzamide]"
12,10 to 100,"Nc1nccn2c([C@@H]3CCCN(C(=O)CO)C3)nc(-c3ccc(C(=O)Nc4ccccn4)cc3)c12 [Example 53, (R)-4-(8-amino-3-(1-(2-hydroxyacetyl)piperidin-3-yl)imidazo[1,5-a]pyrazin-1-yl)-N-(pyridin-2-yl)benzamide]"

# Same assay, conditions: read-out: EC50 Btk activity values - Assay Method A; IMAP-FP, 60 min pre-incubation, 5 μM ATP; class 100-1000 is given as ≧100 nM-<1 μM
row,EC50 [nM],Structure (SMILES)
1,< 10,"Nc1nccn2c(N3CCC[C@H](NC(=O)C4CCC4)C3)nc(-c3ccc(C(=O)Nc4cc(C(F)(F)F)ccn4)cc3)c12 [Example 223, (S)-4-(8-amino-3-(3-(cyclobutanecarboxamido)piperidin-1-yl)imidazo[1,5-a]pyrazin-1-yl)-N-(4-(trifluoromethyl)pyridin-2-yl)benzamide]"
2,< 10,"CSCCC(=O)N1CCC[C@@H](n2nc(-c3ccc(C(=O)Nc4cc(C(F)(F)F)ccn4)cc3)c3c(N)ncnc32)C1 [Example 276, (R)-4-(4-amino-1-(1-(3-(methylthio)propanoyl)piperidin-3-yl)-1H-pyrazolo[3,4-d]pyrimidin-3-yl)-N-(4-(trifluoromethyl)pyridin-2-yl)benzamide]"
3,< 10,"Nc1ncnc2c1c(-c1ccc(C(=O)Nc3cc(C(F)(F)F)ccn3)cc1)nn2[C@@H]1CCCN(C(=O)C2CCC2)C1 [Example 277, (R)-4-(4-amino-1-(1-(cyclobutanecarbonyl)piperidin-3-yl)-1H-pyrazolo[3,4-d]pyrimidin-3-yl)-N-(4-(trifluoromethyl)pyridin-2-yl)benzamide]"
4,< 10,"CCCc1ccnc(NC(=O)c2ccc(-c3nc([C@H]4CC[C@@H](OC)CC4)n4ccnc(N)c34)cc2)c1 [Example 42, 4-(8-amino-3-((cis)-4-methoxycyclohexyl)imidazo [1,5-a]pyrazin-1-yl)-N-(4-propylpyridin-2-yl)benzamide]"
5,< 10,"Nc1nccn2c(N3CCC[C@H](NC(=O)C4CC4)C3)nc(-c3ccc(C(=O)Nc4cc(C(F)(F)F)ccn4)cc3)c12 [Example 222, (S)-4-(8-amino-3-(3-(cyclopropanecarboxamido)piperidin-1-yl)imidazo[1,5-a]pyrazin-1-yl)-N-(4-(trifluoromethyl)pyridin-2-yl)benzamide]"
6,< 10,"CCCc1ccnc(NC(=O)c2ccc(-c3nc([C@H]4CC[C@H](O)CC4)n4ccnc(N)c34)cc2OC)c1 [Example 11, 4-(8-amino-3-((trans)-4-hydroxycyclohexyl)imidazo[1,5-a]pyrazin-1-yl)-2-methoxy-N-(4-propylpyridin-2-yl)benzamide]"
7,< 10,"CC(C)c1ccnc(NC(=O)c2ccc(-c3nc([C@H]4CC[C@H](O)CC4)n4ccnc(N)c34)cc2)c1 [Example 6, 4-(8-amino-3-((trans)-4-hydroxycyclohexyl)imidazo[1,5-a]pyrazin-1-yl)-N-(4-isopropylpyridin-2-yl)benzamide]"
8,< 10,"CONC(=O)C1CCCN(c2nc(-c3ccc(C(=O)Nc4cc(C5CC5)ccn4)cc3)c3c(N)nccn23)C1 (centres unmarked) [Example 244, 1-(8-amino-1-(4-(4-cyclopropylpyridin-2-ylcarbamoyl)phenyl)imidazo[1,5-a]pyrazin-3-yl)-N-methoxypiperidine-3-carboxamide, TFA salt]"
9,< 10,"Nc1nccn2c([C@@H]3CCCN(C(=O)[C@H](O)CO)C3)nc(-c3ccc(C(=O)Nc4cc(C5CC5)ccn4)cc3)c12 [Example 289, 4-(8-amino-3-((R)-1-((R)-2,3-dihydroxypropanoyl)piperidin-3-yl)imidazo[1,5-a]pyrazin-1-yl)-N-(4-cyclopropylpyridin-2-yl)benzamide]"
10,< 10,"COCCC(=O)N1C[C@@H](O)C[C@@H](c2nc(-c3ccc(C(=O)Nc4cc(C(F)(F)F)ccn4)cc3)c3c(N)nccn23)C1 (relative stereo) [Example 181, 4-(8-amino-3-((cis)-5-hydroxy-1-(3-methoxypropanoyl)piperidin-3-yl)imidazo[1,5-a]pyrazin-1-yl)-N-(4-(trifluoromethyl)pyridin-2-yl)benzamide]"
11,< 10,"CCCc1ccnc(NC(=O)c2ccc(-c3nc(N(CC)CC)n4ccnc(N)c34)cc2)c1 [Example 214, 4-(8-amino-3-(diethylamino)imidazo[1,5-a]pyrazin-1-yl)-N-(4-propylpyridin-2-yl)benzamide]"
12,< 10,"CC1(C(=O)N2CCOC(c3nc(-c4ccc(C(=O)Nc5cc(C(F)(F)F)ccn5)cc4)c4c(N)ncc(Cl)n34)C2)COC1 (centres unmarked) [Example 315, 4-(8-amino-5-chloro-3-(4-(3-methyloxetane-3-carbonyl)morpholin-2-yl)imidazo[1,5-a]pyrazin-1-yl)-N-(4-(trifluoromethyl)pyridin-2-yl)benzamide]"
13,< 10,"CCC(=O)C(=O)N1C[C@H](c2nc(-c3ccc(C(=O)Nc4cc(C(F)(F)F)ccn4)cc3)c3c(N)nccn23)CC[C@@H]1C (relative stereo) [Example 200, 4-(8-amino-3-((cis)-6-methyl-1-(2-oxobutanoyl)piperidin-3-yl)imidazo[1,5-a]pyrazin-1-yl)-N-(4-(trifluoromethyl)-pyridin-2-yl)benzamide, TFA salt]"
14,< 10,"Nc1nccn2c(C3CN(C(=O)C4CC4)CCO3)nc(-c3ccc(C(=O)Nc4cc(C(F)(F)F)ccn4)cc3)c12 (centres unmarked) [Example 176, 4-(8-amino-3-(4-(cyclopropanecarbonyl)morpholin-2-yl)imidazo[1,5-a]pyrazin-1-yl)-N-(4-(trifluoromethyl)pyridin-2-yl)benzamide]"
15,< 10,"N#Cc1ccnc(NC(=O)c2ccc(-c3nc(C4CCc5[nH]nc(C6CC6)c5C4)n4ccnc(N)c34)cc2)c1 (centres unmarked) [Example 249, 4-(8-amino-3-(3-cyclopropyl-4,5,6,7-tetrahydro-1H-indazol-5-yl)imidazo[1,5-a]pyrazin-1-yl)-N-(4-cyanopyridin-2-yl)benzamide, TFA salt]"
